Test system: T1, peroxidase from Bacillus aryabhattai B8W22
T1 construct: gene extracellular peroxidase; 66 kDa on SDS-PAGE
Assay: peroxidase activity assay, Lineweaver-Burk plot
Format: biochemical, Priestia aryabhattai
Conditions: co-substrate, pH and temperature of the kinetic assay not given

Km: 6.942 mg/mL
SMILES: COc1ccccc1O [guaiacol]

— paper PMC10148497, “Evaluation of Bacillus aryabhattai B8W22 peroxidase for phenol removal in waste water effluents” (BMC Microbiology, 2023)
